Laboratory results published in paper PMC6691587, “New CXCR1/CXCR2 inhibitors represent an effective treatment for kidney or head and neck cancers sensitive or refractory to reference treatments” (Theranostics, 2019).

What was measured:
Format in all cases: cell-based, human
OCI-AML2 = assay: XTT cell viability assay, OCI-AML2 AML cells; conditions: Homo sapiens, OCI-AML2, 48 h, SD 10%, mean of three experiments, read-out: IC50 L2 (AML)
Protocol: (§1) Fifty microliters of sodium 3′-[1-phenylaminocarbonyl)-3,4-tetrazolium]-bis(4-methoxy-6-nitro) benzene sulfonic acid hydrate (XTT) reagent was added to each well. The assay is based on the cleavage of the yellow tetrazolium salt XTT to form an orange formazan dye by metabolically active cells. This bio-reduction occurs in viable cells only and is related to NAD(P)H production through glycolysis. Therefore, the amount of formazan dye measured at 490 nm directly correlated with the number of metabolically active cells reflecting cell proliferation and viability. Each assay was performed in quadruplicate.

CAL27 = assay: XTT cell viability assay, CAL27 HNSCC cells; conditions: Homo sapiens, CAL-27; XTT assay, 48 h; SD 10%; mean of three experiments; read-out: IC50 27 (HNSCC)
Protocol: as §1

CAL33 = assay: XTT cell viability assay, CAL33 HNSCC cells; conditions: Homo sapiens, CAL-33; XTT assay, 48 h; SD 10%; mean of three experiments; read-out: IC50 33 (HNSCC)
Protocol: as §1

SKM1 = assay: XTT cell viability assay, SKM1 MDS cells; conditions: Homo sapiens, SKM-1, 48 h, SD 10%, mean of three experiments, read-out: IC50 SK (MDS)
Protocol: as §1

Molm14 = assay: XTT cell viability assay, Molm14 AML cells; conditions: Homo sapiens, MOLM-14, 48 h, SD 10%, mean of three experiments
Protocol: as §1

Molm13 = assay: XTT cell viability assay, Molm13 AML cells; conditions: Homo sapiens, MOLM-13, 48 h, SD 10%, mean of three experiments
Protocol: as §1

K562 = assay: XTT cell viability assay, K562 CML cells; conditions: Homo sapiens, K562, 48 h, SD 10%, mean of three experiments
Protocol: as §1

RCC4 = assay: XTT cell viability assay, RCC4 RCC cells; conditions: Homo sapiens, RCC4, 48 h, SD 10%, mean of three experiments, read-out: IC50 R4 (Kidney RCC)
Protocol: as §1

786-O = assay: XTT cell viability assay, 786-O RCC cells; conditions: Homo sapiens, 786-0; XTT assay, 48 h; SD 10%; mean of three experiments; read-out: IC50 786 (Kidney RCC)
Protocol: as §1

MDA-MD-231 = assay: XTT cell viability assay, breast cancer cells; conditions: Homo sapiens, 48 h, SD 10%, mean of three experiments
Protocol: as §1

A498 = assay: XTT cell viability assay, A498 RCC cells; conditions: Homo sapiens, A498; XTT assay, 48 h; SD 10%; mean of three experiments; read-out: IC50 498 (Kidney RCC)
Protocol: as §1

OCI-AML3 = assay: XTT cell viability assay, OCI-AML3 AML cells; conditions: Homo sapiens, OCI-AML-3, 48 h, SD 10%, mean of three experiments, read-out: IC50 L3 (AML)
Protocol: as §1

Row | IC50 (OCI-AML2) | IC50 (SKM1) | IC50 (Molm14) | IC50 (Molm13) | IC50 (K562) | IC50 (786-O) | IC50 (MDA-MD-231) | IC50 (OCI-AML3) | Compound | IC50 (CAL27) | IC50 (CAL33) | IC50 (RCC4) | IC50 (A498)
1 | > 25 µM | > 25 µM | > 25 µM | > 25 µM | > 25 µM | > 25 µM | > 25 µM | > 25 µM | Cc1ccc(NC(=O)Nc2ccccc2Cl)cc1 [C1] | > 25 µM | > 25 µM | > 25 µM | > 25 µM
2 | > 25 µM | > 25 µM | > 25 µM | > 25 µM | > 25 µM | > 25 µM | > 25 µM | > 25 µM | Cc1ccc(NC(=O)Nc2cccc(Cl)c2)cc1 [C2] | > 25 µM | > 25 µM | > 25 µM | > 25 µM
3 | > 25 µM | > 25 µM | > 25 µM | > 25 µM | > 25 µM | > 25 µM | > 25 µM | > 25 µM | Cc1ccc(NC(=O)Nc2ccc(Cl)cc2)cc1 [C3] | > 25 µM | > 25 µM | > 25 µM | > 25 µM
4 | > 25 µM | > 25 µM | > 25 µM | > 25 µM | > 25 µM | > 25 µM | > 25 µM | > 25 µM | O=C(Nc1ccccc1Cl)Nc1ccc(Cl)cc1Cl [C4] | > 25 µM | > 25 µM | > 25 µM | > 25 µM
5 | 22 µM | 22 µM | 25 µM | 20 µM | 20 µM | 22 µM | > 25 µM | 20 µM | O=C(Nc1cccc(Cl)c1)Nc1ccc(Cl)cc1Cl [C5] | 15 µM | 25 µM | 20 µM | 22 µM
6 | 25 µM | > 25 µM | > 25 µM | 22 µM | 15 µM | > 25 µM | > 25 µM | 22 µM | O=C(Nc1ccc(Cl)cc1)Nc1ccc(Cl)cc1Cl [C6] | 25 µM | > 25 µM | > 25 µM | 22 µM
7 | > 25 µM | > 25 µM | > 25 µM | > 25 µM | > 25 µM | > 25 µM | > 25 µM | > 25 µM | Cc1ccc(NC(=S)Nc2ccccc2)cc1 [C7] | > 25 µM | > 25 µM | > 25 µM | > 25 µM
8 | > 25 µM | > 25 µM | > 25 µM | > 25 µM | > 25 µM | > 25 µM | > 25 µM | > 25 µM | S=C(Nc1ccccc1)Nc1ccc(Cl)cc1Cl [C8] | > 25 µM | > 25 µM | > 25 µM | > 25 µM
9 | > 25 µM | > 25 µM | > 25 µM | > 25 µM | > 25 µM | > 25 µM | > 25 µM | > 25 µM | O=C(Nc1ccc(Cl)cc1)Nc1ccc(Cl)cc1 [C10] | > 25 µM | > 25 µM | > 25 µM | > 25 µM
10 | > 25 µM | > 25 µM | > 25 µM | > 25 µM | > 25 µM | > 25 µM | > 25 µM | > 25 µM | O=C(Nc1cccc(Cl)c1)Nc1ccccc1O [C11] | > 25 µM | > 25 µM | > 25 µM | > 25 µM
11 | 18 µM | 25 µM | 20 µM | 25 µM | 10 µM | 20 µM | 12 µM | 25 µM | O=C(Nc1ccccc1)Nc1nc2ccccc2[nH]1 [C13] | 10 µM | 10 µM | 25 µM | 10 µM
12 | > 25 µM | > 25 µM | > 25 µM | > 25 µM | > 25 µM | > 25 µM | > 25 µM | > 25 µM | O=C(Nc1nc2ccccc2[nH]1)Nc1ccccc1Cl [C14] | > 25 µM | > 25 µM | > 25 µM | > 25 µM
13 | > 25 µM | > 25 µM | > 25 µM | > 25 µM | > 25 µM | > 25 µM | > 25 µM | > 25 µM | O=C(Nc1cccc(Cl)c1)Nc1nc2ccccc2[nH]1 [C15] | > 25 µM | > 25 µM | > 25 µM | > 25 µM
14 | > 25 µM | > 25 µM | > 25 µM | > 25 µM | > 25 µM | > 25 µM | > 25 µM | > 25 µM | COc1ccc(NC(=O)Nc2nc3ccccc3[nH]2)cc1 [C17] | > 25 µM | > 25 µM | > 25 µM | > 25 µM
15 | > 25 µM | > 25 µM | > 25 µM | > 25 µM | > 25 µM | > 25 µM | > 25 µM | > 25 µM | O=C(Nc1ccccc1)Nc1nc2ccccc2s1 [C20] | > 25 µM | > 25 µM | > 25 µM | > 25 µM
16 | 10 µM | > 25 µM | > 25 µM | > 25 µM | > 25 µM | > 25 µM | > 25 µM | > 25 µM | O=C(Nc1nc2ccccc2s1)Nc1ccccc1Cl [C21] | > 25 µM | > 25 µM | 25 µM | > 25 µM
17 | > 25 µM | > 25 µM | > 25 µM | > 25 µM | 25 µM | > 25 µM | > 25 µM | > 25 µM | O=C(Nc1cccc(Cl)c1)Nc1nc2ccccc2s1 [C22] | > 25 µM | > 25 µM | 20 µM | > 25 µM
18 | > 25 µM | > 25 µM | > 25 µM | > 25 µM | 25 µM | > 25 µM | > 25 µM | > 25 µM | O=C(Nc1ccc(Cl)cc1)Nc1nc2ccccc2s1 [C23] | > 25 µM | > 25 µM | 20 µM | 25 µM
19 | > 25 µM | > 25 µM | > 25 µM | > 25 µM | 25 µM | > 25 µM | > 25 µM | > 25 µM | COc1ccc(NC(=O)Nc2nc3ccccc3s2)cc1 [C24] | > 25 µM | > 25 µM | 15 µM | > 25 µM
20 | > 25 µM | > 25 µM | > 25 µM | > 25 µM | > 25 µM | > 25 µM | > 25 µM | > 25 µM | Cc1ccc2nc(NC(=O)Nc3cccc(Cl)c3)sc2c1 [C26] | > 25 µM | > 25 µM | > 25 µM | > 25 µM
21 | > 25 µM | > 25 µM | > 25 µM | > 25 µM | > 25 µM | > 25 µM | > 25 µM | > 25 µM | Cc1cccc(NC(=O)Nc2nc3ccc(C)cc3s2)c1 [C27] | > 25 µM | > 25 µM | > 25 µM | > 25 µM
22 | 25 µM | > 25 µM | 25 µM | > 25 µM | 25 µM | > 25 µM | > 25 µM | > 25 µM | CCOc1ccc2nc(NC(=O)Nc3cccc(C)c3)sc2c1 [C31] | > 25 µM | > 25 µM | > 25 µM | > 25 µM
23 | > 25 µM | > 25 µM | > 25 µM | > 25 µM | > 25 µM | > 25 µM | > 25 µM | > 25 µM | CCOc1ccc2nc(NC(=O)Nc3ccc(C)cc3)sc2c1 [C32] | > 25 µM | > 25 µM | > 25 µM | > 25 µM
